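48-hour exposure; five concentrations; linearly interpolated endpoints. At the GI50, growth is halved.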 Calls of active or inactive are those of the source. No stated cut-off is given here; in the data, active = GI50 up to about 1.1 µM and inactive = higher.
Tests used:
Test in all cases: growth of human tumour cells (NCI), 48 h
MDA-N = system: MDA-N
OVCAR-3 = system: OVCAR-3
SK-MEL-2 = system: SK-MEL-2
MCF7 = system: MCF7
SW-620 = system: SW-620
MOLT-4 = system: MOLT-4
UO-31 = system: UO-31
A549 = system: A549
HCT-15 = system: HCT-15
SK-MEL-5 = system: SK-MEL-5
HOP-62 = system: HOP-62
KM12 = system: KM12
RPMI-8226 = system: RPMI-8226
A498 = system: A498
SN12C = system: SN12C
MDA-MB-231 = system: MDA-MB-231
OVCAR-5 = system: OVCAR-5
SR = system: SR
SF-268 = system: SF-268
PC-3 = system: PC-3
SF-295 = system: SF-295
Hs-578T = system: Hs-578T
OVCAR-4 = system: OVCAR-4
BT-549 = system: BT-549
K562 = system: K562
T47D = system: T47D
SNB-19 = system: SNB-19
CCRF-CEM = system: CCRF-CEM
LOX IMVI = system: LOX IMVI
HCT-116 = system: HCT-116
M14 = system: M14
HCC 2998 = system: HCC 2998
NCI-H460 = system: NCI-H460
SK-MEL-28 = system: SK-MEL-28
DU-145 = system: DU-145
U-251 = system: U-251
TK-10 = system: TK-10
HOP-92 = system: HOP-92
MDA-MB-435 = system: MDA-MB-435
IGROV-1 = system: IGROV-1
CAKI-1 = system: CAKI-1
OVCAR-8 = system: OVCAR-8
UACC-257 = system: UACC-257
NCI-H23 = system: NCI-H23
HT-29 = system: HT-29
ACHN = system: ACHN
786-0 = system: 786-0
SNB-75 = system: SNB-75
COLO 205 = system: COLO 205
SK-OV-3 = system: SK-OV-3
NCI/ADR-RES = system: NCI/ADR-RES
EKVX = system: EKVX
NCI-H226 = system: NCI-H226
UACC-62 = system: UACC-62
NCI-H522 = system: NCI-H522
Malme-3M = system: Malme-3M
SF-539 = system: SF-539
HL-60 = system: HL-60
RXF 393 = system: RXF 393

## COc1ccc(-n2cnc3c(NC(C)(C)C(=O)O)ncnc32)cc1
MDA-N
  GI50: > 100 µM (inactive)
OVCAR-3
  GI50: > 100 µM (inactive)
SK-MEL-2
  GI50: > 100 µM (inactive)
MCF7
  GI50: > 100 µM (inactive)
SW-620
  GI50: > 100 µM (inactive)
MOLT-4
  GI50: > 100 µM (inactive)
UO-31
  GI50: > 100 µM (inactive)
A549
  GI50: > 100 µM (inactive)
HCT-15
  GI50: > 100 µM
SK-MEL-5
  GI50: > 100 µM (inactive)
HOP-62
  GI50: > 100 µM (inactive)
KM12
  GI50: > 100 µM (inactive)
RPMI-8226
  GI50: > 100 µM (inactive)
A498
  GI50: > 100 µM (inactive)
SN12C
  GI50: > 100 µM (inactive)
MDA-MB-231
  GI50: > 100 µM (inactive)
OVCAR-5
  GI50: > 100 µM (inactive)
SR
  GI50: > 100 µM (inactive)
SF-268
  GI50: > 100 µM (inactive)
PC-3
  GI50: > 100 µM (inactive)
SF-295
  GI50: > 100 µM (inactive)
Hs-578T
  GI50: > 100 µM (inactive)
OVCAR-4
  GI50: > 100 µM (inactive)
BT-549
  GI50: > 100 µM (inactive)
K562
  GI50: > 100 µM (inactive)
T47D
  GI50: > 100 µM (inactive)
SNB-19
  GI50: > 100 µM (inactive)
CCRF-CEM
  GI50: > 100 µM (inactive)
LOX IMVI
  GI50: > 100 µM (inactive)
HCT-116
  GI50: > 100 µM (inactive)
M14
  GI50: > 100 µM (inactive)
HCC 2998
  GI50: > 100 µM (inactive)
NCI-H460
  GI50: > 100 µM (inactive)
SK-MEL-28
  GI50: > 100 µM (inactive)
DU-145
  GI50: > 100 µM (inactive)
U-251
  GI50: > 100 µM (inactive)
TK-10
  GI50: > 100 µM (inactive)
HOP-92
  GI50: > 100 µM (inactive)
MDA-MB-435
  GI50: > 100 µM (inactive)
IGROV-1
  GI50: > 100 µM (inactive)
CAKI-1
  GI50: > 100 µM (inactive)
OVCAR-8
  GI50: > 100 µM (inactive)
UACC-257
  GI50: > 100 µM (inactive)
NCI-H23
  GI50: > 100 µM (inactive)
HT-29
  GI50: > 100 µM (inactive)
ACHN
  GI50: > 100 µM (inactive)
786-0
  GI50: > 100 µM (inactive)
SNB-75
  GI50: > 100 µM (inactive)
COLO 205
  GI50: > 100 µM (inactive)
SK-OV-3
  GI50: > 100 µM (inactive)
NCI/ADR-RES
  GI50: > 100 µM (inactive)
EKVX
  GI50: 84.9 µM (inactive)
NCI-H226
  GI50: > 100 µM (inactive)
UACC-62
  GI50: > 100 µM (inactive)

## C[S+]([O-])c1ncc2c(n1)-c1ccccc1OC2 (stereo unspecified)
MDA-N
  GI50: > 100 µM (inactive)
OVCAR-3
  GI50: 56.2 µM (inactive)
NCI-H522
  GI50: > 100 µM (inactive)
SK-MEL-2
  GI50: > 100 µM (inactive)
MCF7
  GI50: 38.5 µM (inactive)
SW-620
  GI50: > 100 µM (inactive)
MOLT-4
  GI50: > 100 µM (inactive)
UO-31
  GI50: 22.3 µM (inactive)
A549
  GI50: > 100 µM (inactive)
HCT-15
  GI50: 88.1 µM
SK-MEL-5
  GI50: 78.3 µM (inactive)
HOP-62
  GI50: > 100 µM (inactive)
KM12
  GI50: > 100 µM (inactive)
RPMI-8226
  GI50: 81.8 µM (inactive)
SN12C
  GI50: 47 µM (inactive)
MDA-MB-231
  GI50: > 100 µM (inactive)
OVCAR-5
  GI50: > 100 µM (inactive)
SR
  GI50: > 100 µM (inactive)
SF-268
  GI50: > 100 µM (inactive)
PC-3
  GI50: > 100 µM (inactive)
Malme-3M
  GI50: > 100 µM (inactive)
SF-539
  GI50: > 100 µM (inactive)
SF-295
  GI50: > 100 µM (inactive)
Hs-578T
  GI50: 63.4 µM (inactive)
OVCAR-4
  GI50: 85.9 µM (inactive)
BT-549
  GI50: > 100 µM (inactive)
K562
  GI50: > 100 µM (inactive)
T47D
  GI50: 35.2 µM (inactive)
SNB-19
  GI50: > 100 µM (inactive)
CCRF-CEM
  GI50: > 100 µM (inactive)
LOX IMVI
  GI50: > 100 µM (inactive)
HCT-116
  GI50: > 100 µM (inactive)
M14
  GI50: > 100 µM (inactive)
HCC 2998
  GI50: 38.4 µM (inactive)
NCI-H460
  GI50: > 100 µM (inactive)
SK-MEL-28
  GI50: > 100 µM (inactive)
DU-145
  GI50: 38.6 µM (inactive)
U-251
  GI50: > 100 µM (inactive)
TK-10
  GI50: 45.7 µM (inactive)
HOP-92
  GI50: 49.3 µM (inactive)
MDA-MB-435
  GI50: > 100 µM (inactive)
IGROV-1
  GI50: 49.1 µM (inactive)
CAKI-1
  GI50: 83.8 µM (inactive)
OVCAR-8
  GI50: > 100 µM (inactive)
HL-60
  GI50: 36.7 µM (inactive)
RXF 393
  GI50: > 100 µM (inactive)
UACC-257
  GI50: 40.3 µM (inactive)
NCI-H23
  GI50: > 100 µM (inactive)
HT-29
  GI50: 61.5 µM (inactive)
ACHN
  GI50: 92.5 µM (inactive)
786-0
  GI50: > 100 µM (inactive)
SNB-75
  GI50: > 100 µM (inactive)
COLO 205
  GI50: 68.1 µM (inactive)
SK-OV-3
  GI50: > 100 µM (inactive)
NCI/ADR-RES
  GI50: > 100 µM (inactive)
EKVX
  GI50: 70.1 µM (inactive)
NCI-H226
  GI50: > 100 µM (inactive)
UACC-62
  GI50: 92.3 µM (inactive)

## Nc1ncnc2c1N=C(c1ccccc1)CC(c1ccccc1)N2 (stereo unspecified)
MDA-N
  GI50: > 100 µM (inactive)
OVCAR-3
  GI50: > 100 µM (inactive)
NCI-H522
  GI50: > 100 µM (inactive)
SK-MEL-2
  GI50: > 100 µM (inactive)
MCF7
  GI50: > 100 µM (inactive)
SW-620
  GI50: > 100 µM (inactive)
MOLT-4
  GI50: > 100 µM (inactive)
UO-31
  GI50: > 100 µM (inactive)
A549
  GI50: > 100 µM (inactive)
HCT-15
  GI50: > 100 µM
HOP-62
  GI50: 97.5 µM (inactive)
KM12
  GI50: > 100 µM (inactive)
RPMI-8226
  GI50: > 100 µM (inactive)
SN12C
  GI50: > 100 µM (inactive)
MDA-MB-231
  GI50: > 100 µM (inactive)
OVCAR-5
  GI50: > 100 µM (inactive)
SR
  GI50: > 100 µM (inactive)
SF-268
  GI50: > 100 µM (inactive)
PC-3
  GI50: > 100 µM (inactive)
Malme-3M
  GI50: > 100 µM (inactive)
SF-539
  GI50: > 100 µM (inactive)
SF-295
  GI50: > 100 µM (inactive)
Hs-578T
  GI50: 39.4 µM (inactive)
OVCAR-4
  GI50: > 100 µM (inactive)
BT-549
  GI50: > 100 µM (inactive)
K562
  GI50: > 100 µM (inactive)
T47D
  GI50: > 100 µM (inactive)
SNB-19
  GI50: > 100 µM (inactive)
CCRF-CEM
  GI50: > 100 µM (inactive)
LOX IMVI
  GI50: > 100 µM (inactive)
HCT-116
  GI50: > 100 µM (inactive)
M14
  GI50: > 100 µM (inactive)
HCC 2998
  GI50: > 100 µM (inactive)
SK-MEL-28
  GI50: > 100 µM (inactive)
DU-145
  GI50: > 100 µM (inactive)
U-251
  GI50: > 100 µM (inactive)
TK-10
  GI50: > 100 µM (inactive)
HOP-92
  GI50: > 100 µM (inactive)
MDA-MB-435
  GI50: > 100 µM (inactive)
CAKI-1
  GI50: > 100 µM (inactive)
OVCAR-8
  GI50: > 100 µM (inactive)
RXF 393
  GI50: > 100 µM (inactive)
UACC-257
  GI50: > 100 µM (inactive)
NCI-H23
  GI50: > 100 µM (inactive)
HT-29
  GI50: > 100 µM (inactive)
ACHN
  GI50: > 100 µM (inactive)
786-0
  GI50: > 100 µM (inactive)
SNB-75
  GI50: 23.6 µM (inactive)
COLO 205
  GI50: > 100 µM (inactive)
SK-OV-3
  GI50: > 100 µM (inactive)
NCI/ADR-RES
  GI50: 59.2 µM (inactive)
EKVX
  GI50: > 100 µM (inactive)
NCI-H226
  GI50: > 100 µM (inactive)
UACC-62
  GI50: > 100 µM (inactive)
